Converted amounts (≈) assume the structure as drawn. Like-named read-outs stand apart in the source and are kept apart here. *1 amine or outer side, *2 acyl side, *3 side chain or, on linkers, in order; H or OH if unused. Where a SMILES comes first, the peptide text is derived from it. Bridges are numbered along the chain shown (N, C = ends). [ ]: non-standard residue; d: D form. Trp(2-yl) = O=C([C@H](Cc1c([*:3])[nH]c2ccccc12)N[*:1])[*:2]; Leu(4R-OH,5-OH) = C[C@](O)(CO)C[C@H](N)C(=O)O; cisHyp = O=C(O)[C@@H]1C[C@H](O)CN1
Tests used:
[1] = test system: E. coli K-12 strain SH3210; assay: Anucleate cell blue assay; format: cell-based
Experimental: Anucleate cell blue assay. The anucleate cell blue assay was carried out as reported previously. Briefly, E. coli K-12 strain SH3210 (ΔtrpE5 his λ pXX747) was grown in a P medium containing 1% Polypepton and 0.5% NaCl (pH 7). Paper disks (φ 8 mm) each soaked with 20 μl of a sample solution were placed on P medium agar plates (1.5% agar) containing 10^4 cells/ml of SH3210 and 40 μg/ml of 5-bromo-4-chloro-3-indolyl β-D-galactoside. The plates were incubated at 42° C. for 24 h, and the development of a blue color and the growth inhibitory zone around the paper disks were evaluated.
Since 1 had originally been found through screening by an anucleate cell blue assay, the effect of each compound was first examined by this assay.

P. putida NBRC14164 = assay: Determination of minimum inhibitory concentration (MIC); format: cell-based, Pseudomonas putida; settings: for MIC P. putida: Example 2; for MIC: Pseudomonas putida
Experimental: (§1) Determination of minimum inhibitory concentration (MIC). MICs were also determined on Mueller Hinton agar plates (0.2% beef extract, 1.75% acid digest of casein, 0.15% soluble starch, 1.5% agar, pH 7.3).
(§2) Determination of MIC Minimal inhibitory concentrations (MICs) were determined using a standard 2-fold serial dilution format on L agar plates. Ten microliters of stationary culture diluted in 0.85% NaCl to 10^6 cells/ml were spotted on per plate. […] MICs were also determined on Mueller Hinton agar plates (0.2% beef extract, 1.75% acid digest of casein, 0.15% soluble starch, 1.5% agar, pH 7.3).

S. typhimurium NBRC13245 = assay: as above; format: cell-based, Salmonella typhimurium; settings: for MIC: Salmonella enterica, read-out: MIC S. typhimurium
Experimental: as §1, §2

B. subtilis 168 = assay: as above; format: cell-based, Bacillus subtilis; settings: for MIC B. subtilis: Example 2
Experimental: as §1, §2

E. coli MG1655 [2] = assay: Microscopic observation of cell shape; format: cell-based; settings: for Effect on E. coli cell morphology (in words): 3×MIC or 300 μg/ml, 16 hrs
Experimental: Microscopic observation. E. coli K-12 strain MG1655 (F^− λ^−) was grown in Lennox broth containing 1% Polypepton, 0.5% yeast extract, 0.5% NaCl, and 0.1% glucose (pH 7.2). Cells spread on a slide glass were treated with methanol for 5 min and covered with poly-L-lysine. The fixed cells were observed by the differential interference contrast system through an Axioskop 2 microscope (Carl Zeiss Co., Ltd., Oberkochen, Germany). To observe the anucleate cells, cells were stained with a 4′,6-diamidino-2-phenylindole (DAPI) solution (5 μg/ml in saline) and then observed by the fluorescence phase-contrast combined method.
The effect of each compound on E. coli cell morphology was next examined.

[3] = test system: S. aureus subsp. aureus NBRC15035; assay: Determination of minimum inhibitory concentration (MIC); format: cell-based, Staphylococcus aureus; settings: for MIC S. aureus: Example 2; for MIC: Staphylococcus aureus
Experimental: as §1, §2

E. coli MG1655 [4] = assay: as above; format: cell-based; settings: for MIC: Escherichia coli; for MIC E. coli: Example 2
Experimental: as §1, §2

Caulobacter = Caulobacter morphology (DIC images); format: cell-based, Caulobacter crescentus; settings: drugs that affect eukaryotic actin
Source text: Consistent with previous observations in E. coli (Iwai et al., 2002), A22 caused a dose-dependent alteration of Caulobacter morphology, transforming normal, crescent-shaped cells into rounded, lemon-shaped cells. The progression of cell shape deformation by A22 treatment was qualitatively similar to that caused by mreB depletion, though the A22 effect was more rapid (FIGS. […]). […] For example, A22 could disrupt the localization of new cell wall synthesis but have no effect on the existing cell wall, such that without additional growth and wall synthesis A22's effects cannot be perceived. A dependence on cell growth could also explain why A22's effect on morphology takes several hours to manifest.
Microscopy and Timelapse Imaging. All experiments other than the A22 flow-cell analysis were performed by mounting the samples on 1% agarose pads as described, with the appropriate concentration of A22 added to the agarose. The rates of origin-distal locus segregation were determined by inducing PxyI:lacI:cfp expression with 0.03% xylose for 75 min, isolating swarmer cells, and growing the swarmer cells in M2G liquid medium for 50 min. After 50 min, 10 μg/ml of A22 was added to these liquid cultures, they were mounted onto 1% M2G agarose pads containing 10 μg/ml A22, and a phase and CFP fluorescence image was captured every 2 min for 60 min. The images were analyzed by previously described software to determine the average position and rate of movement of the observed foci.

[5] = NBRC14164, read-out: MIC P. putida
[6] = Example 2, methods as in Example 1
[7] = Bacillus subtilis, 168, read-out: MIC B. subtilis
[8] = E. coli MG1655 treated at 300 μg/ml (**), 30° C., 16 h
[9] = NBRC15035, read-out: MIC S. aureus
[10] = NBRC14164, Example 2, methods as in Example 1, read-out: MIC P. putida
[11] = NBRC14164, Table 1, NBRC14164, read-out: MIC P. putida
[12] = Bacillus subtilis, 168, Example 2, methods as in Example 1, read-out: MIC B. subtilis
[13] = Bacillus subtilis, 168, Table 1, B. subtilis 168, read-out: MIC B. subtilis
[14] = E. coli MG1655 treated at 3×MIC (*), 30° C., 16 h
[15] = NBRC15035, Example 2, methods as in Example 1, read-out: MIC S. aureus
[16] = NBRC15035, Table 1, NBRC15035, read-out: MIC S. aureus
[17] = MG1655, Example 2, methods as in Example 1, read-out: MIC E. coli
[18] = MG1655, Table 1, E. coli MG1655, read-out: MIC E. coli

| SMILES | Growth inhibitory zone and blue zone in the anucleate cell blue assay (in words) [1] | MIC P. putida (P. putida NBRC14164; methods as in Example 1) | MIC (P. putida NBRC14164; [5]) | MIC S. typhimurium (S. typhimurium NBRC13245; [6]) | MIC (S. typhimurium NBRC13245) | MIC (B. subtilis 168; [7]) | MIC B. subtilis (B. subtilis 168; methods as in Example 1) | Shape (E. coli MG1655 [2]; [8]) | Shape (E. coli MG1655 [2]; [6]) | MIC S. aureus ([3]; methods as in Example 1) | MIC [3, 9] | MIC (E. coli MG1655 [4]; MG1655, read-out: MIC E. coli) | MIC E. coli (E. coli MG1655 [4]; methods as in Example 1) | further results |
| --- | --- | --- | --- | --- | --- | --- | --- | --- | --- | --- | --- | --- | --- | --- |
| O=C=NCc1ccccc1 [Compound 9, benzylisocyanate, reference compound] | neither a growth inhibitory zone nor blue zone | >100 µg/mL | > 100 µg/mL | >100 µg/mL | > 100 µg/mL | > 100 µg/mL | >100 µg/mL | Rod** | Rod | >100 µg/mL | > 100 µg/mL | > 100 µg/mL | >100 µg/mL | – |
| N=C(N)SCc1ccccc1 [Compound 3, S-benzylisothiourea] | blue zone just around the paper disk, but only a marginal growth inhibitory zone was detected | – | – | – | – | – | – | – | Sphere | – | – | – | – | MIC (P. putida NBRC14164; [10]): > 100 µg/mL; MIC (P. putida NBRC14164; [11]): > 100 µg/mL; MIC (S. typhimurium NBRC13245; [6]): > 100 µg/mL; MIC (S. typhimurium NBRC13245; Table 1, NBRC13245): > 100 µg/mL; MIC (B. subtilis 168; [12]): > 100 µg/mL; MIC (B. subtilis 168; [13]): > 100 µg/mL; Effect on E. coli cell morphology (in words) (E. coli MG1655 [2]; 30° C.): induced a spherical cell shape; Shape (E. coli MG1655 [2]; [14]): Sphere*; MIC [3, 15]: > 100 µg/mL; MIC [3, 16]: > 100 µg/mL; MIC (E. coli MG1655 [4]; [17]): 100 µg/mL (≈ 602 µM); MIC (E. coli MG1655 [4]; [18]): 100 µg/mL (≈ 602 µM) |
| N=C(N)SCC1CCCCC1 [Compound 4] | neither a growth inhibitory zone nor blue zone | – | – | – | – | – | – | Rod** | Short Rod | – | – | – | – | MIC (P. putida NBRC14164; [10]): > 200 µg/mL; MIC (P. putida NBRC14164; [11]): > 100 µg/mL; MIC (S. typhimurium NBRC13245; [6]): > 200 µg/mL; MIC (S. typhimurium NBRC13245; Table 1, NBRC13245): > 100 µg/mL; MIC (B. subtilis 168; [12]): > 200 µg/mL; MIC (B. subtilis 168; [13]): > 100 µg/mL; Effect on E. coli cell morphology (in words) (E. coli MG1655 [2]; 30° C.): shorter than corresponding untreated cells, but spherical cells were not induced; MIC [3, 15]: > 200 µg/mL; MIC [3, 16]: > 100 µg/mL; MIC (E. coli MG1655 [4]; [17]): > 200 µg/mL; MIC (E. coli MG1655 [4]; [18]): > 100 µg/mL |
| C[C@@H]1NC(=O)[C@H](C[C@@](C)(O)CO)NC(=O)[C@@H]2Cc3c([nH]c4ccccc34)SC[C@H](NC(=O)[C@@H]([C@H](C)O)NC1=O)C(=O)N1C[C@@H](O)C[C@H]1C(=O)N[C@@H](C)C(=O)N2 [phalloidin] (cyclo(A[dT]C[cisHyp]A[Trp(2-yl)][Leu(4R-OH,5-OH)]); thioether 3-6) | – | – | – | – | – | – | – | – | – | – | – | – | – | Caulobacter growth rate or morphology (Caulobacter): failed to perturb growth rate or morphology |
| N#CSCc1ccccc1 [Compound 7, S-benzylithiocyanate, reference compound] | neither a growth inhibitory zone nor blue zone | >100 µg/mL | > 100 µg/mL | >100 µg/mL | > 100 µg/mL | > 100 µg/mL | >100 µg/mL | – | Rod | >100 µg/mL | > 100 µg/mL | > 100 µg/mL | >100 µg/mL | Shape (E. coli MG1655 [2]; [14]): Rod* |
| CCSC(=N)N [Compound 6, S-ethylisothiourea] | neither a growth inhibitory zone nor blue zone | >100 µg/mL | > 100 µg/mL | >100 µg/mL | > 100 µg/mL | > 100 µg/mL | >100 µg/mL | Rod** | Rod | >100 µg/mL | > 100 µg/mL | > 100 µg/mL | >100 µg/mL | – |
| NC(=S)Nc1ccccc1 [Compound 10, N-phenylthiourea, reference compound] | neither a growth inhibition nor blue zone | >100 µg/mL | > 100 µg/mL | >100 µg/mL | > 100 µg/mL | > 100 µg/mL | >100 µg/mL | Rod** | Rod | >100 µg/mL | > 100 µg/mL | > 100 µg/mL | >100 µg/mL | – |
